Earlier results on eleven compounds are cited in patent US20070037797A1, “Method of reducing the risk of adverse cardiovascular (CV) events associated with the administration of pharmaceutical agents which favor CV events” (priority 2005, published 2007).

The conditions of series [1]: high-risk patients with diabetes mellitus, compared to placebo.
The conditions of series [2]: individuals with essential hypertension.
The conditions of series [3]: use at high frequency or dose.
For series [4] the following is noted: in vivo.
For series [5] the following is noted: FDA determination.
For series [6] the following is noted: versus the non-selective NSAID naproxen.
For series [7] the following is noted: 25 mg/day of rofecoxib versus placebo.
The conditions of series [8]: in vivo. The source holds these as a separate data set.
For series [9] the following is noted: Losartan 50 mg vs. captopril 50 mg three times daily, patients with heart failure.
The conditions of series [10]: losartan vs. captopril.
Test in series [11]: not given
The source holds these as a separate data set.

For series [12] the following is noted: 10 mg dose.

The structures appear in SMILES notation. Like-named read-outs stand apart in the source and are kept apart here.

Consider `CCOC(=O)[C@H](CCc1ccccc1)N[C@@H](C)C(=O)N1[C@H](C(=O)O)C[C@@H]2CCC[C@@H]21` [ramipril], for which the “relative risk reduction, combined primary outcome of myocardial infarction, stroke, and cardiovascular death” value in series [1] was 25%.

For the compound `CCC(=O)NS(=O)(=O)c1ccc(-c2c(-c3ccccc3)noc2C)cc1` [parecoxib], the endothelial dysfunction result in [2] is listed as “worsening”.

Consider `CC(=O)Nc1ccc(O)cc1` [acetaminophen], for which, in series [3], the “risk of adverse CV events” value was “significant increase”.

In the case of `COc1ccc(OC(=O)N(CC(=O)O)Cc2ccc(OCCc3nc(-c4ccccc4)oc3C)cc2)cc1` [muraglitazar], the “risk of myocardial infarct and stroke” value in series [4] is “increases the risk of myocardial infarct and stroke”.

For the compound `Cc1onc(-c2ccccc2)c1-c1ccc(S(N)(=O)=O)cc1` [valdecoxib], in series [5], the “risk of adverse CV events compared to placebo” value (shortened to “risk … compared to placebo”) is on record as “increased risk of adverse CV events”.

For `CS(=O)(=O)c1ccc(C2=C(c3ccccc3)C(=O)OC2)cc1` [rofecoxib], the “increase in the incidence of myocardial infarction” value in [6] is “approximately two”. The “risk … compared to placebo” value in series [5] is “increased risk of adverse CV events”. For the same compound, the “selectivity for COX-2 compared with celecoxib” value with COX-2 relative to COX-1 is on record as 10 times. For the same compound, in series [7], the “increase in the incidence of serious thrombotic adverse events” value was “approximately two”.

Take `O=C(c1ccc(OCCN2CCCCC2)cc1)c1c(-c2ccc(O)cc2)sc2cc(O)ccc12` [raloxifene]: the risk of stroke result in series [8] is “increases the risk of stroke”.

For `Cc1ccc(-c2cc(C(F)(F)F)nn2-c2ccc(S(N)(=O)=O)cc2)cc1` [celecoxib], the “risk … compared to placebo” value in [5] is “increased risk of adverse CV events”. The “hazard for the composite endpoint of death from CV causes” value (200 mg twice daily compared to placebo) is 2.5 and the “hazard for the composite endpoint of death from CV causes” value (400 mg twice daily compared to placebo) is 3.4. In addition, the “increase in adverse CV events” value (versus placebo after a mean duration of 33 months) was 2-3 fold.

For `CCCCc1nc(Cl)c(CO)n1Cc1ccc(-c2ccccc2-c2nn[nH]n2)cc1` [Losartan], the mortality result in series [9] was “significant reduction in mortality”. The clinical endpoints result in [10] is “no significant difference”.

As for `CCCCC(=O)N(Cc1ccc(-c2ccccc2-c2nnn[nH]2)cc1)[C@H](C(=O)O)C(C)C` [valsartan], the “survival and rates of non-fatal CV events” value in series [11] (patients with myocardial infarction) is “improved survival and reduced the rates of non-fatal CV events”. Besides, the “improving survival and reducing cardiovascular morbidity compared with captopril” value in series [11] (target dose of 160 mg twice daily) is reported as “as effective as the ACE inhibitor captopril”.

For `CC(C)c1c(C(=O)Nc2ccccc2)c(-c2ccccc2)c(-c2ccc(F)cc2)n1CC[C@@H](O)C[C@@H](O)CC(=O)O` [atorvastatin], the “reduction in LDL” value in [12] was 39%.
